Consider 3 molecules from US20220242905A1, “MODIFIED PEPTIDES AND THEIR USE” (UNIVERSITE DE MONTPELLIER, priority 2018, published 2022).

Values after ≈ are worked out from the molar mass of the structure shown. Read-outs that look alike come from different tables or passages of the source.

Data set [1] concerns Escherichia coli ATCC8739. The data set is classed as cell-based. Conditions: for Minimal inhibitory concentration (MIC) E. coli ATCC8739: ATCC8739, 24 h; for Minimal bactericidal concentration (MBC) E. coli ATCC8739: value in bracket, 24 h at 37° C. As for the experimental part:
(§1) Minimal inhibitory concentration (MIC) values and minimal bactericidal concentration (MBCs) values for ATC-peptides 1-9 were determined against both Gram-positive (Bacillus subtilis, Staphylococcus aureus, Enterococcus faecalis) and Gram negative (Escherichia coli, Pseudomonas aeruginosa) bacteria as well as a yeast (Candida albicans). Experiments were conducted in triplicate. For B. subtilis, compounds were tested against vegetative cells and spores, which are particularly resistant to the action of antimicrobial agents. MIC and MBCs values are shown Table 12. In addition, haemolytic properties of 1-9 were tested.
(§2) the antimicrobial performances of oligomers antimicrobial activity were determined on three Gram positive strains (Bacillus subtilis ATCC6633, Staphylococcus aureus ATCC6538 and Enterococcus faecalis ATCC29121), two Gram negative strains (Escherichia coli ATCC8739 and Pseudomonas aeruginosa ATCC9027) and one fungal strain (Candida albicans ATCC10231). Each bacterial strain was allowed to grow overnight on Trypto-Caseine-Soja agar (TSA, Difco) at 37° C., C. albicans was allowed to grow 48 h on a sabouraud medium (Difco) at 20-25° C. A fresh suspension at 10^8 CFU·mL^−1 was then prepared by inoculating the micro-organisms in a Tryptone-Sel solution. Concentration was monitored by measuring transmitted light at 620 nm or with the Mac Farland turbidity standard (Mac Farland=0.5≈10^8 CFU·mL^−1). Each suspension was then diluted in a doubly strong Mueller-Hinton (MH, Difco) broth to […]. Two-fold serial dilutions (100 μL) of oligomers in sterile water (pH adjusted between 7.4 and 7.7 with HCl and NaOH solutions) were mixed with microbial inoculum (100 μL) in NUNC sterile clear polystyrene flat-bottom 96-well plates. A 1/1 v/v oligomer solution/water mixture was used a negative control and a 1/1 vv water/microbial inoculum mixture was used a positive control. Plates were then incubated 24 h at 37° C. for bacteria and 48 h at 25° C. for C. albicans. Minimum Inhibitory Concentration (MIC) was determined as the lowest concentration inhibiting the growth of each micro-organism. […] Minimum Bactericidal Concentration (MBC) was determined as the lowest concentration that prevent the growth of more than one colony. Each assay was performed in a triple duplicate for each strain.

Data set [2] has as its system Enterococcus faecalis ATCC29121. The data set is classed as cell-based. Conditions: for Minimal inhibitory concentration (MIC) E. faecalis ATCC29121: ATCC29121, 24 h; for Minimal bactericidal concentration (MBC) E. faecalis ATCC29121: value in bracket, 24 h at 37° C. As for the experimental part:
as §1, §2

In data set [3] the test system is Pseudomonas aeruginosa ATCC9027. The data set is classed as cell-based. To be noted: for Minimal inhibitory concentration (MIC) P. aeruginosa ATCC9027: ATCC9027, 24 h; for Minimal bactericidal concentration (MBC) P. aeruginosa ATCC9027: value in bracket, 24 h at 37° C. As for the experimental part:
as §1, §2

In data set [4] the test system is Candida albicans ATCC10231. The data set is classed as cell-based. Conditions: for Minimal inhibitory concentration (MIC) C. albicans ATCC10231: ATCC10231, 48 h; for Minimal bactericidal concentration (MBC) C. albicans ATCC10231: value in bracket, 48 h at 25° C. As for the experimental part: as §1, §2
In data set [5] the test system is Staphylococcus aureus ATCC6538. The data set is classed as cell-based. To be noted: for Minimal inhibitory concentration (MIC) S. aureus ATCC6538: ATCC6538, 24 h; for Minimal bactericidal concentration (MBC) S. aureus ATCC6538: value in bracket, 24 h at 37° C. As for the experimental part:
as §1, §2

Data set [6] has as its system Bacillus subtilis ATCC6633. The data set is classed as cell-based. To be noted: for Minimal inhibitory concentration (MIC) B. subtilis ATCC6633: ATCC6633, 24 h; for Minimal bactericidal concentration (MBC) B. subtilis ATCC6633: value in bracket, 24 h at 37° C. On the procedure: as §1, §2
For data set [7], the system named is Human red blood cells (hRBCs). Briefly: Hemolytic activity. The data set is classed as cell-based. To be noted: 1 h at 37° C., printed in the HD50 column. As for the experimental part:
(§3) Procedure for measurements of hemolytic activity: Human red blood cells (hRBCs) were washed multiple times with phosphate-buffered saline (PBS) until a clear supernatant was obtained. The hRBCs suspension was made in PBS with a Packed Cell Volume of 5%, Two-fold serial dilutions (50 μL) of oligomers in sterile water (pH adjusted between 7.4 and 7.7 with HCl and NaOH solutions) were mixed with hRBCs suspension (50 μL) in clear polystyrene optical-bottom 96-well plates which were filmed and incubated for 1 h at 37° C. A 1/1 vv hRBCs solution/PBS mixture was used a negative control and a 1/1 vv hRBCs solution/1% (TRIS 50 mM pH=8.0+1% SDS) mixture was used a positive control for 100% hemolysis. The mixture was then centrifuged at 1500 g for 10 min at 5° C. Next, 50 μL of the supernatant was transferred into a second plate, and the absorbance was read at 490 nm using a BioRad iMark plate reader. The hemolysis percentage was calculated by the formula % hemolysis=[Absorbance (sample)−Absorbance (negative control)]/[Absorbance (positive control)−Absorbance (negative control)]×100%. Each assay was performed in a double duplicate. Hemolytic activity was determined or estimated with the Hemolytic Concentration leading to 50% of lysis of hRBCs (HC50).

The nature of data set [8]: Hemolytic activity. The data set is classed as cell-based, Human. To be noted: human, human red blood cell suspension; hRBCs, 1 h at 37° C.; read-out: HD50, dose required to lyse 50% of the red blood cells. As for the experimental part:
as §3

For data set [9], the system named is E. coli. The data set is classed as cell-based, Escherichia coli. Conditions: 2 h. On the procedure:
FIG. 17 represents a graphic showing the results of a time-kill study of oligomer 9 on E. coli over 2 h incubation at 37° C.
(§4) Surface electron microscopy (SEM) experiments: oligomer 9 was evaluated for its impact on E. coli morphology by surface electron microscopy (SEM). In order to define the best incubation period to observed antimicrobial effects, time-kill study was conducted over 2 h incubation at 37° C. […] Significant decrease of the growth rate was observed between 40 to 60 min at 4× and 8×MIC. TEM experiments were performed after 60 min contact between bacteria cells and compound 9. […] In addition, whereas there were no fragments for control untreated bacteria, numerous spherical elements whose diameters were lower than 0.1 μm were observed around bacteria, the number of which increasing with the peptide concentration. Despite some dispersion in size, such fragments, probable microsomes, were classically reported with other AMPs associated with membrane permeation and/or depolarization. [M. Hartmann, M. Berditsch J. Hawecker, F. Ardakani, D. Gerthsen, A. S. Ulrich, Antimicrob. Agents Chemother. 2010, 54, 3132-3142 b/ E. Duval, C, Zatylny, M. Laurencin, M. Baudy-Floc'h, J. Henry, Peptides 2009, 30, 1608-1612.]

The subject of data set [10] is E. coli. The data set is described as follows: Surface electron microscopy (SEM) of bacterial morphology. The data set is classed as cell-based, Escherichia coli. To be noted: after 60 min incubation with 8×MIC; untreated about 2.0 μm. On the procedure:
FIG. 18 represents electronic microscopy photos. A/, B/ and C/ SEM micrographs untreated E. coli on glass platelets. In isotonic medium the cells are long, intact and evenly shaped.
FIG. 19 represents SEM micrographs untreated E. coli after 60 min incubation with 8×MIC of 9.
as §4, with “1608-1612.] […]” for “1608-1612.]”

For `CC(=O)N[C@@H](CCCCN)c1nc(C)sc1C(=O)N[C@@H](C)c1nc(C)sc1C(=O)N[C@@H](C)c1nc(CCCCN)sc1C(=O)N[C@@H](C)c1nc(C)sc1C(=O)N[C@@H](C)c1nc(CCCCN)sc1C(=O)N[C@@H](CCCCN)c1nc(C)sc1C(=O)N[C@@H](C)c1nc(CCCCN)sc1C(=O)N[C@@H](CCCCN)c1nc(C)sc1C(=O)N[C@@H](C)c1nc(C)sc1C(=O)N[C@@H](C)c1nc(C)sc1C(=O)N[C@@H](C)c1nc(CCCCN)sc1C(=O)N[C@@H](CCCCN)c1nc(C)sc1C(N)=O` [Oligomer 5], in data set [1], the “Minimal inhibitory concentration (MIC) E. coli ATCC8739” value amounted to 5.2 µM (≈ 13.2 µg/mL). Moreover, the “Minimal inhibitory concentration (MIC) E. faecalis ATCC29121” value in [2] was over 150 µM. The “Minimal inhibitory concentration (MIC) P. aeruginosa ATCC9027” value in data set [3] is 100 µM (≈ 253 µg/mL). Also, the “Minimal inhibitory concentration (MIC) C. albicans ATCC10231” value in [4] is 50 µM (≈ 127 µg/mL). For the same molecule, in data set [5], the “Minimal inhibitory concentration (MIC) S. aureus ATCC6538” value was determined as 100 µM (≈ 253 µg/mL). Further, the “Minimal inhibitory concentration (MIC) B. subtilis ATCC6633” value in data set [6] worked out at 0.8 µM (≈ 2.03 µg/mL). Besides, the HD10 in data set [7] came out at 62.5 µM.
As for `CC(=O)N[C@@H](CCCNC(=N)N)c1nc(C)sc1C(=O)N[C@@H](C)c1nc(CCCNC(=N)N)sc1C(=O)N[C@@H](C)c1nc(C)sc1C(=O)N[C@@H](CCCNC(=N)N)c1nc(C)sc1C(=O)N[C@@H](C)c1nc(CCCNC(=N)N)sc1C(=O)N[C@@H](C)c1nc(C)sc1C(=O)N[C@@H](CCCNC(=N)N)c1nc(C)sc1C(=O)N[C@@H](C)c1nc(CCCNC(=N)N)sc1C(=O)N[C@@H](C)c1nc(C)sc1C(N)=O` [Oligomer 8], in data set [1], the “Minimal inhibitory concentration (MIC) E. coli ATCC8739” value worked out at 0.8 µM (≈ 1.67 µg/mL) and the “Minimal bactericidal concentration (MBC) E. coli ATCC8739” value is reported as “(0.8) μM”. In data set [2], the “Minimal inhibitory concentration (MIC) E. faecalis ATCC29121” value is 100 µM (≈ 208 µg/mL) and the “Minimal bactericidal concentration (MBC) E. faecalis ATCC29121” value is given as “(>100) μM”. In [3], the “Minimal inhibitory concentration (MIC) P. aeruginosa ATCC9027” value amounted to 54 µM (≈ 113 µg/mL) and the “Minimal bactericidal concentration (MBC) P. aeruginosa ATCC9027” value was “(100) μM”. Further, in data set [4], the “Minimal inhibitory concentration (MIC) C. albicans ATCC10231” value came out at 9.4 µM (≈ 19.6 µg/mL) and the “Minimal bactericidal concentration (MBC) C. albicans ATCC10231” value is listed as “(12.5) μM”. For the same molecule, in data set [5], the “Minimal inhibitory concentration (MIC) S. aureus ATCC6538” value is 14.6 µM (≈ 30.4 µg/mL) and the “Minimal bactericidal concentration (MBC) S. aureus ATCC6538” value is “(16.5) μM”. Further, in [6], the “Minimal inhibitory concentration (MIC) B. subtilis ATCC6633” value was 0.5 µM (≈ 1.04 µg/mL) and the “Minimal bactericidal concentration (MBC) B. subtilis ATCC6633” value is listed as “(0.5) μM”. Also, the HC50 at 1 h in [8] was over 100 µM.
On to `CC(=O)N[C@@H](CCCNC(=N)N)c1nc(C)sc1C(=O)N[C@@H](C)c1nc(CCCNC(=N)N)sc1C(=O)N[C@@H](C)c1nc(C)sc1C(=O)N[C@@H](CCCNC(=N)N)c1nc(C)sc1C(=O)N[C@@H](C)c1nc(CCCNC(=N)N)sc1C(=O)N[C@@H](C)c1nc(C)sc1C(=O)N[C@@H](CCCNC(=N)N)c1nc(C)sc1C(=O)N[C@@H](C)c1nc(CCCNC(=N)N)sc1C(=O)N[C@@H](C)c1nc(C)sc1C(=O)N[C@@H](CCCNC(=N)N)c1nc(C)sc1C(=O)N[C@@H](C)c1nc(CCCNC(=N)N)sc1C(=O)N[C@@H](C)c1nc(C)sc1C(N)=O` [Oligomer 9], for which, in [1], the “Minimal inhibitory concentration (MIC) E. coli ATCC8739” value amounted to 1.8 µM (≈ 4.97 µg/mL) and the “Minimal bactericidal concentration (MBC) E. coli ATCC8739” value is reported as “(2.3) μM”. Moreover, in [2], the “Minimal inhibitory concentration (MIC) E. faecalis ATCC29121” value came to 20.8 µM (≈ 57.4 µg/mL) and the “Minimal bactericidal concentration (MBC) E. faecalis ATCC29121” value is given as “(25) μM”. In addition, in data set [3], the “Minimal inhibitory concentration (MIC) P. aeruginosa ATCC9027” value worked out at 4.2 µM (≈ 11.6 µg/mL) and the “Minimal bactericidal concentration (MBC) P. aeruginosa ATCC9027” value was “(4.7) μM”. In data set [4], the “Minimal inhibitory concentration (MIC) C. albicans ATCC10231” value was 6.2 µM (≈ 17.1 µg/mL) and the “Minimal bactericidal concentration (MBC) C. albicans ATCC10231” value is “(6.2) μM”. Further, in [5], the “Minimal inhibitory concentration (MIC) S. aureus ATCC6538” value was 3.1 µM (≈ 8.55 µg/mL) and the “Minimal bactericidal concentration (MBC) S. aureus ATCC6538” value is listed as “(7.8) μM”. For the same molecule, in data set [6], the “Minimal inhibitory concentration (MIC) B. subtilis ATCC6633” value was 0.6 µM (≈ 1.66 µg/mL) and the “Minimal bactericidal concentration (MBC) B. subtilis ATCC6633” value is “(0.8) μM”. Besides, the “average log reduction of the viable cell count” value in data set [9] is given as 0.95 log10 cfu/ml. The “average log reduction of the viable cell count” value in data set [9] (8) came out at 4.73 log10 cfu/ml. For the same molecule, in data set [8], the HC50 at 1 h is over 100 µM. Further, the “length of E. coli cells” value in data set [10] is recorded as at least 1.3 μm.
